Experimental data as given in ChEMBL document CHEMBL1144023, “Computer-aided discovery of anti-inflammatory thiazolidinones with dual cyclooxygenase/lipoxygenase inhibition” (J Med Chem, 2008).
Active and inactive are the calls of the source. No cut-off for these calls is given here.

Legend:
[1] = target: T1, Prostaglandin G/H synthase 1 (Ovis aries) (UniProt P05979); assay: Inhibition of sheep COX1 at 200 uM in presence of 1 uM arachidonic acid
T1 sequence (whole entry): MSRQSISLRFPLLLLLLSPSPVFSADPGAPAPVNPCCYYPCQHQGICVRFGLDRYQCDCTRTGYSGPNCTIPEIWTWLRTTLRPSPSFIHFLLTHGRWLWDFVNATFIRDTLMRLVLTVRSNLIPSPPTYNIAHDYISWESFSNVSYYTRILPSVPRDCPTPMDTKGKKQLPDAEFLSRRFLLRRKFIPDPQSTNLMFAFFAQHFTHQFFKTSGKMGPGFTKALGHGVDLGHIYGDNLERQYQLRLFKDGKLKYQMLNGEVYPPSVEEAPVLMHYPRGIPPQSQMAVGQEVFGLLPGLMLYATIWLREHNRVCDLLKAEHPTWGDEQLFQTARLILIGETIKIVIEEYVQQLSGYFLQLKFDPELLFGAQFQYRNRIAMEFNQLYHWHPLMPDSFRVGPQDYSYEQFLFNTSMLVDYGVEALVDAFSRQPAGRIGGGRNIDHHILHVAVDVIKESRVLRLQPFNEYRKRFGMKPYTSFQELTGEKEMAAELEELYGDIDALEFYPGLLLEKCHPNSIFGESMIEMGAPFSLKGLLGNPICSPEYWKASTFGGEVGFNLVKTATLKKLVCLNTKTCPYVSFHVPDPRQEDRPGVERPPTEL

[2] = target: T2, Seed linoleate 13S-lipoxygenase-1 (Glycine max) (UniProt P08170); assay: Inhibition of soybean LOX at 100 uM
T2 sequence (whole entry): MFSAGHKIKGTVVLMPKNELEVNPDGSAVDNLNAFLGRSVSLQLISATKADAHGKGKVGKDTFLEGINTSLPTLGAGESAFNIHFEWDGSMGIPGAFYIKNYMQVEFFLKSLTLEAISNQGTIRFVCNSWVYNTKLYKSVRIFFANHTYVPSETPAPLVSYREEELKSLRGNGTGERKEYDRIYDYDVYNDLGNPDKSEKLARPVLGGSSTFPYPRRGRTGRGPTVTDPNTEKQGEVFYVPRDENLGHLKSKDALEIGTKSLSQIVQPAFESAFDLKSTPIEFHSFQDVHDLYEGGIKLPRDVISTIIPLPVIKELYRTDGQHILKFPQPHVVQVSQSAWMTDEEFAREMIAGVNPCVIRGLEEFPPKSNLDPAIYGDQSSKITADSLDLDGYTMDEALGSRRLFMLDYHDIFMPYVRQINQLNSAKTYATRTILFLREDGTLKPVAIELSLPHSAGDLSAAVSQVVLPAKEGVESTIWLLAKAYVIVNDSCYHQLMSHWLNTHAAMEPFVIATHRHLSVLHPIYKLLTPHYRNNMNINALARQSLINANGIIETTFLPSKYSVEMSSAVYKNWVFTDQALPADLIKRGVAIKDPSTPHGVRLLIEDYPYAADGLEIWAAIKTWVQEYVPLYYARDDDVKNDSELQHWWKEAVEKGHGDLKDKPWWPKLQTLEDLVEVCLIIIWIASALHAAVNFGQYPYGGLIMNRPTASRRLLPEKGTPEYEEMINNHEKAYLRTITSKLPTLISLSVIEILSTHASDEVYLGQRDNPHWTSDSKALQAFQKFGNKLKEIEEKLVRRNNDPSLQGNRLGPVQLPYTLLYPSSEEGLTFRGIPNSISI

[3] = target: T1, Prostaglandin G/H synthase 1 (Ovis aries); assay: Inhibition of sheep COX1 at 200 uM in presence of 100 uM arachidonic acid
[4] = target: T3, Prostaglandin G/H synthase 2 (Homo sapiens) (UniProt P35354); assay: Inhibition of human recombinant COX2 at 200 uM
T3 sequence (whole entry): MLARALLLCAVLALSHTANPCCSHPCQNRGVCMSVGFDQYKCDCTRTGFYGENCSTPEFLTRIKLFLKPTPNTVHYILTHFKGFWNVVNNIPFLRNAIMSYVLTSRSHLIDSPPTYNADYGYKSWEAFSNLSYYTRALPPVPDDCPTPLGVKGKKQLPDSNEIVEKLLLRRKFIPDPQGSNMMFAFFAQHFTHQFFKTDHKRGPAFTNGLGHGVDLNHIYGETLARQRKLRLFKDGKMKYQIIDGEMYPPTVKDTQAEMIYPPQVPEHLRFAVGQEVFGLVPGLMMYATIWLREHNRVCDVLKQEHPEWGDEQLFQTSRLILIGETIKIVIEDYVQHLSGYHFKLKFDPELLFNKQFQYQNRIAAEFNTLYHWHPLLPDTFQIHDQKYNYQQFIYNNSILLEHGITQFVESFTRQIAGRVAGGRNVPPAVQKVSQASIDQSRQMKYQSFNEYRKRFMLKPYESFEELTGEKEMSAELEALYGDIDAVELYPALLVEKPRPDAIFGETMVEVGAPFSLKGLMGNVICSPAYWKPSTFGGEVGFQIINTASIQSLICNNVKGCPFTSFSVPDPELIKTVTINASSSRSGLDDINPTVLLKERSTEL

[5] = tested on: Mus musculus; assay: Antiinflammatory activity in AKR mouse assessed as inhibition of carrageenan-induced paw edema at 0.01 mmol/kg; assay type: functional
[6] = target: T4, Prostaglandin G/H synthase 2 (Homo sapiens, UniProt P35354); assay: Inhibition of human recombinant COX2
T4 sequence (P35354 whole entry): T3 sequence (whole entry)

| inhibition [1] | inhibition [2] | Activity [3] | inhibition [4] | IC50 [6] | SMILES | inhibition in vivo at 10 µmol/kg [5] |
| --- | --- | --- | --- | --- | --- | --- |
| 60% | 12.5% | inactive | 4.5% | – | O=C1N/C(=N\c2nccs2)S/C1=C/c1ccc([N+](=O)[O-])cc1 | 66.1% |
| 90% | 12% | inactive | 30.4% | 262 µM | O=C1N/C(=N\c2nccs2)S/C1=C/c1cccc(Cl)c1 | 44.5% |
| 8% | 22.4% | inactive | 2.5% | – | COc1ccc(/C=C2/S/C(=N/c3nccs3)NC2=O)cc1 | 51.1% |
| 0% | – | – | 0% | – | O=C1CSC(Nc2nccs2)=N1 | – |
